One data set deals with α-chymotrypsin. As to conditions: α-chymotrypsin 1% by weight, 0.1 M Tris buffer pH 7.7, 37° C., RP-HPLC.
The subject of a further data set is C. neoformans 271A. To be noted: 4 hr. The protocol: (§1) Microbicidal activity was measured by first incubating the target organism with the peptide in 10 mM PIPES buffer (pH 7.4), then plating the suspension to quantitate surviving microorganisms.
(§2) Cultures were grown to mid log phase in an appropriate medium, harvested, washed, and resuspended to 1-2×10^7 colony forming units (CFU) per ml. To conserve peptide, the incubation volume usually was 0.05 ml, with the final cell concentration being 1-2×10^6 CFU/ml. Peptide stock solutions, usually made up in […], were diluted in the incubation buffer to a final concentration of 1 μg/ml to 30 μg/ml, and the incubation was initiated by addition of an appropriate volume of the bacterial or fungal stock suspension to the prewarmed (37° C.) peptide-buffer mixture. E. coli and S. aureus were incubated with peptide for 30 min; C. albicans was incubated for 60 min; and C. neoformans was incubated for 4 hr. Following incubation, 50 μl or 100 μl samples were removed and diluted serially, then plated on nutrient-containing agar plates.

In a further data set the test system is S. aureus 207A. As to conditions: 30 min. As to the method:
as §1, §2

The next data set has as its system E. coli ML35. As to conditions: 30 min. As to the method:
as §1, §2

The subject of another data set is C. albicans. To be noted: 60 min, 10 mM PIPES pH 7.4. As to the method:
as §1, §2

The next data set has as its system Candida albicans 16820. As to conditions: 10, 30, 100 or 300 μg/ml in 10 mM PIPES pH 7.4; FIG. 5. The protocol: (§3) Nutrient-containing agar (or agarose) plates were seeded with E. coli ML35, C. neoformans 271A, S. aureus 207A or C. albicans 16820. […] Following an initial incubation interval of 1 to 4 hr, the well-containing layer was overlayed with enriched (2×normal) solid medium in order to support microbial growth outside the perimeter of inhibition. After overnight incubation at 30° C. to 37° C., the antimicrobial activity was quantitated by measuring the clear zones around each well (zone of inhibition).

Data set [1] relates to Cryptococcus neoformans 271A. To be noted: 10, 30, 100 or 300 μg/ml in 10 mM PIPES pH 7.4; FIG. 3. The protocol:
as §3

In the next data set the test system is Escherichia coli ML35. As to conditions: 10, 30, 100 or 300 μg/ml in 10 mM PIPES pH 7.4; FIG. 2. The protocol: as §3
Data set [2] concerns Staphylococcus aureus 207A. As to conditions: 10, 30, 100 or 300 μg/ml in 10 mM PIPES pH 7.4; FIG. 4. The protocol: as §3
Where [3] appears, read: 10 μg/ml peptide, 10 mM PIPES pH 7.4.

Where two headings read alike, the source gives them in different places.

For the substance “Ile-Leu-Pro-Trp-Lys-Trp-Pro-Trp-Trp-Pro-Trp-Arg-Arg-CONH2 [Indol 1-13]”, the “time within which all of the peptide was digested” value in the data set on α-chymotrypsin was at most 6 h. Also, the “reduction of survival (CFU)” value in the data set with C. neoformans 271A (setting [3]) is “greater than three orders of magnitude”; with S. aureus 207A (setting [3]), “greater than three orders of magnitude”; in the data set on E. coli ML35 (setting [3]), “greater than three orders of magnitude”; with C. albicans (10 μg/ml peptide) it was “about two orders of magnitude”; with C. albicans (30 μg/ml peptide), “greater than three orders of magnitude”. Moreover, the “additional killing versus 10 μg/ml” value in the data set on C. neoformans 271A (30 μg/ml peptide), in the data set on S. aureus 207A (30 μg/ml peptide) and in the data set on E. coli ML35 (30 μg/ml peptide) was “minimal additional killing” throughout. For the same substance, the “growth inhibition (zone of inhibition)” value (with Candida albicans 16820; in data set [1]; in the data set with Escherichia coli ML35; in [2]) was “inhibited the growth of each microorganism tested in a dose dependent manner” in each case.
